Drawing on publication PMC4774911, “Biochemical Screening of Five Protein Kinases from Plasmodium falciparum against 14,000 Cell-Active Compounds” (PLoS ONE, 2016), this text covers Kd for three molecules.

Some targets named below: LYN (Homo sapiens, UniProt P07948); CHEK2 (Homo sapiens, UniProt O96017); CSNK1D (Homo sapiens, UniProt P48730); KIAA0999 (Homo sapiens, UniProt Q9Y2K2); MAP3K11 (Homo sapiens, UniProt Q16584); MAPK9 (Homo sapiens, UniProt P45984); MAP2K2 (Homo sapiens, UniProt P36507); PTK2B (Homo sapiens, UniProt Q14289).
What all share (assay): biochemical
Holding throughout (design): endogenous in cells; host or cells: K562 cell extract; species or system K562 (extract); replicate k of n = 2 (each experiment ID is one independent experiment; two experiment IDs per compound)
Common to all, as to conditions: read-out: KDapp

The next experiment deals with T1, ITK (Homo sapiens, UniProt Q08881).
T1 sequence (Q08881 1-620): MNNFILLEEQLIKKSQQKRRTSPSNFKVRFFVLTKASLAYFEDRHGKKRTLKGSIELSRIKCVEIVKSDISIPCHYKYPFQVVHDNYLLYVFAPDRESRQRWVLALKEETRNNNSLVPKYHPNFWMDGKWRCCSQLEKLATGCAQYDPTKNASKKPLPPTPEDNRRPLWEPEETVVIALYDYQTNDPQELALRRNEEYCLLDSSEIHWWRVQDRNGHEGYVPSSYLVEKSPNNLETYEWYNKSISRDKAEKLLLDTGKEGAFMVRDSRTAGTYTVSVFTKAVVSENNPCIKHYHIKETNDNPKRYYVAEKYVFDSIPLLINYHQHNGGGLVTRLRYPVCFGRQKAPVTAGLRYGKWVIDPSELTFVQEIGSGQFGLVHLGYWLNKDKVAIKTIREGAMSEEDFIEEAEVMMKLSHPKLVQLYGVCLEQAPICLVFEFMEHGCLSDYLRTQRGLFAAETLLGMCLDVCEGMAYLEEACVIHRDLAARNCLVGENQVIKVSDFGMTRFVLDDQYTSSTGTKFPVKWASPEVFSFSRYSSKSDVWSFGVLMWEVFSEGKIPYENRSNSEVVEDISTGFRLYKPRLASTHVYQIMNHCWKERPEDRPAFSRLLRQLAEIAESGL

The next experiment deals with T2, MYLK3 (Homo sapiens, UniProt Q32MK0).
T2 sequence (Q32MK0 1-819): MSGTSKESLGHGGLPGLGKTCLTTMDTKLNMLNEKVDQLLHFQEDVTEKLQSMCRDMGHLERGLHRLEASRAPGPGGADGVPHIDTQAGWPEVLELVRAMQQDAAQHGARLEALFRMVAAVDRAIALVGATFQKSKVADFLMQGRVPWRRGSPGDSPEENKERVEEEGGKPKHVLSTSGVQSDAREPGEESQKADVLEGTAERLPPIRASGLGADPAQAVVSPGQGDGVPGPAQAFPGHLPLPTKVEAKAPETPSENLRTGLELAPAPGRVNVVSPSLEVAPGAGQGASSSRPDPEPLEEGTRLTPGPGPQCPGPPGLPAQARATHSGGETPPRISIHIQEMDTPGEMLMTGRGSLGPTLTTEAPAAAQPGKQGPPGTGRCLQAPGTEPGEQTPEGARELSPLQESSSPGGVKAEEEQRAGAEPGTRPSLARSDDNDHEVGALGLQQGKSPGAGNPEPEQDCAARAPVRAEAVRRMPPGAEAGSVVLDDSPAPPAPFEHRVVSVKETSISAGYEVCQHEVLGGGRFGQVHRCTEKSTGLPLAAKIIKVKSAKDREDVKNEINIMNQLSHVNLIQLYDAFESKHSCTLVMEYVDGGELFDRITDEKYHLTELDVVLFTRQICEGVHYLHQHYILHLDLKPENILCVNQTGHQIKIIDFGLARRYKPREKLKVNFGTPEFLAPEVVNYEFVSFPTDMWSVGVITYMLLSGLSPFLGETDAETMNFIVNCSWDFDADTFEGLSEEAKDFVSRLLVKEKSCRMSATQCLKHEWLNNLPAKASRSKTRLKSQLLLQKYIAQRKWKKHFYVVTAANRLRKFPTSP

Where “and” joins values, the source holds several entries; their conditions need not be identical. Identical values can stand only once.

Sequence of LYN (P07948 whole entry): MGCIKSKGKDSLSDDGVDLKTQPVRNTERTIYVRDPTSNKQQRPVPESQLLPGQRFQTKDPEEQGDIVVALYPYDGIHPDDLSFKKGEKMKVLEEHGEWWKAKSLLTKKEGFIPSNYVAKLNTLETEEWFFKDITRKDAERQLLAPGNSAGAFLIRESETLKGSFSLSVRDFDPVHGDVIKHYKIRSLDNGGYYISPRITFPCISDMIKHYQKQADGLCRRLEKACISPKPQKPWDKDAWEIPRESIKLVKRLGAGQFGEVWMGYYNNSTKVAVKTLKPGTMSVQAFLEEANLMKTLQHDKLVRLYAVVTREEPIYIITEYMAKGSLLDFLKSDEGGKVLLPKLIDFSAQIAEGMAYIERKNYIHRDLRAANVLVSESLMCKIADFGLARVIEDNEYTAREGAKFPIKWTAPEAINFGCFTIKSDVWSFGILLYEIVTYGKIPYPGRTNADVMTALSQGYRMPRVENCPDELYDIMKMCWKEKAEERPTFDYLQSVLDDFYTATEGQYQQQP
Sequence of MAP2K2 (P36507 whole entry): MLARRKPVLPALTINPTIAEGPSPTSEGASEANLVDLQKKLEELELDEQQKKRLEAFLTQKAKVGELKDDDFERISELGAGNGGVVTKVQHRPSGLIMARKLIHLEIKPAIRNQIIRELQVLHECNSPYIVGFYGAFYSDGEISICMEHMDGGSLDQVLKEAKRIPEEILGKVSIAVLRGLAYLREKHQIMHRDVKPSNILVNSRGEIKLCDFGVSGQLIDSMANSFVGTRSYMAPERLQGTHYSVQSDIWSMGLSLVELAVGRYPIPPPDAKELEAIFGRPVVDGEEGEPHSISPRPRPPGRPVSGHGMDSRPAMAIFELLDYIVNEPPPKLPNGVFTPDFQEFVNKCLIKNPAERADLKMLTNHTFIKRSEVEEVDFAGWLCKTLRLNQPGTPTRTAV
Sequence of MAPK9 (P45984 whole entry): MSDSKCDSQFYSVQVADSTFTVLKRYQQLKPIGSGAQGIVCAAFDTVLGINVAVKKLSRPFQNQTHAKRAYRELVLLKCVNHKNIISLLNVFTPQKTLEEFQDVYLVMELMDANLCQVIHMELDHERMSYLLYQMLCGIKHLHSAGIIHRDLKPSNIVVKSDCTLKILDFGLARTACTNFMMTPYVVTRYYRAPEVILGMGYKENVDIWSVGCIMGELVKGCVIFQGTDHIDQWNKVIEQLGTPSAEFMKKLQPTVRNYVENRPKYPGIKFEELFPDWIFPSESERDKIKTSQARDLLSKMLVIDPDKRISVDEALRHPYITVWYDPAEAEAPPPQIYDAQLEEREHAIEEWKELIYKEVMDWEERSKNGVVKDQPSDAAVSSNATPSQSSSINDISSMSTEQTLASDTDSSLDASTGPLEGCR
Sequence of PTK2B (Q14289 whole entry): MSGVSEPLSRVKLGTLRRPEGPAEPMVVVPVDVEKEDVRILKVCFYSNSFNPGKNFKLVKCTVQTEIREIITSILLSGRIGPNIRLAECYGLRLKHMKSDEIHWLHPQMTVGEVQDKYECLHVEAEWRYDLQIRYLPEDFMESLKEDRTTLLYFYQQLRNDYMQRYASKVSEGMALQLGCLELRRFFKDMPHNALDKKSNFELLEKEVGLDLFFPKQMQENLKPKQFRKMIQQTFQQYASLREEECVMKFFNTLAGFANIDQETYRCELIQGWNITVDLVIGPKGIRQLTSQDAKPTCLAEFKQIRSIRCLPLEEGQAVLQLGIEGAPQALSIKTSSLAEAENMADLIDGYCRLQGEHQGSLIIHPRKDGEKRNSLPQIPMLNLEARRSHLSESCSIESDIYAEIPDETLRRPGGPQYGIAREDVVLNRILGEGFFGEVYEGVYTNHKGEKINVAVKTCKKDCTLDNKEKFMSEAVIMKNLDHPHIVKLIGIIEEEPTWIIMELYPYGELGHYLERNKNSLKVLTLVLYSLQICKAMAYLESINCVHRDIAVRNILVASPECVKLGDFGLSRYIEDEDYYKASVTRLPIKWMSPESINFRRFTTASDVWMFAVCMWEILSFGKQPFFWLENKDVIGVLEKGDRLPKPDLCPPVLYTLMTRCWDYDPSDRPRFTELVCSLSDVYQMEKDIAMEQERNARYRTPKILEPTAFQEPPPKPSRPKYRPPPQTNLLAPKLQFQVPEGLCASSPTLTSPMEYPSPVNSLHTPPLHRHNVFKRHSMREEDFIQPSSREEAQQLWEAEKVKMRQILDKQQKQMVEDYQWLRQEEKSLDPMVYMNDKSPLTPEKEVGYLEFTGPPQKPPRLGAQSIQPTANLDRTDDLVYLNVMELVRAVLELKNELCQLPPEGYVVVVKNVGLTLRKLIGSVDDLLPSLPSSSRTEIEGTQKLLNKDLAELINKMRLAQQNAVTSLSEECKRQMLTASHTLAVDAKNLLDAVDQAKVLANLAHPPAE
Sequence of KIAA0999 (Q9Y2K2 whole entry): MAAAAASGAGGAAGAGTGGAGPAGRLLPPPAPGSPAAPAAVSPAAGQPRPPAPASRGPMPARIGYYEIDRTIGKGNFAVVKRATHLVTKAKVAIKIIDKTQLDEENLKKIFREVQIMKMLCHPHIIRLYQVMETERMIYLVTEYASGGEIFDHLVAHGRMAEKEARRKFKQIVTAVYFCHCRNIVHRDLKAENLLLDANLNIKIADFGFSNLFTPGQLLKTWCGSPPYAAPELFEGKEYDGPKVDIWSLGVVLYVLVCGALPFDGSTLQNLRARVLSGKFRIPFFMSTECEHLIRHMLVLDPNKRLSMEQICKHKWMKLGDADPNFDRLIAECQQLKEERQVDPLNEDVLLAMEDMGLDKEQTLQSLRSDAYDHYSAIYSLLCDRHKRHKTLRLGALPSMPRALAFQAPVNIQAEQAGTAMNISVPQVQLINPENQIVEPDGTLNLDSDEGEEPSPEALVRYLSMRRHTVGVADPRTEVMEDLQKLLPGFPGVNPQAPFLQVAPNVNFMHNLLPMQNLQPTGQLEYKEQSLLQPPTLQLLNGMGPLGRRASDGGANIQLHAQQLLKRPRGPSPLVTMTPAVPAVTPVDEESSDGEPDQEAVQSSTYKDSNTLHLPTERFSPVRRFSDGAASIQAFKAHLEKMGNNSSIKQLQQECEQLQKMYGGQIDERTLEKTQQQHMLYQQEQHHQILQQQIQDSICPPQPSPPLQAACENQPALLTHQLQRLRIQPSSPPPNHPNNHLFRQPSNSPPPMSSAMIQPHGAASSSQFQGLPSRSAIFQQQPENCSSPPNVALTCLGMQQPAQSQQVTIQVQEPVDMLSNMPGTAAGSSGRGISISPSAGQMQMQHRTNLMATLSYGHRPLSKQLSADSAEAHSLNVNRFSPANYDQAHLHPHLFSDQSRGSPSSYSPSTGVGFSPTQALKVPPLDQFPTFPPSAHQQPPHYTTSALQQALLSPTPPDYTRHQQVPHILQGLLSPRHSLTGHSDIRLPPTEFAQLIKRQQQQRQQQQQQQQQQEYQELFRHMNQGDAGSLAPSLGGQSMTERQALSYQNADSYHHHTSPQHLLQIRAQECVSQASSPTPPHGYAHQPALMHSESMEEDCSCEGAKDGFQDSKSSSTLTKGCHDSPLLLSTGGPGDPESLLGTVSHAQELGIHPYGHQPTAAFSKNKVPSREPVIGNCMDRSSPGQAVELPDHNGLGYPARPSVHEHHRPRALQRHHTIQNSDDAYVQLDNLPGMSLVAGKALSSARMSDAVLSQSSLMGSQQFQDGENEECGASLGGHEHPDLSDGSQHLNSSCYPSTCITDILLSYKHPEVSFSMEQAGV
Sequence of MAP3K11 (Q16584 whole entry): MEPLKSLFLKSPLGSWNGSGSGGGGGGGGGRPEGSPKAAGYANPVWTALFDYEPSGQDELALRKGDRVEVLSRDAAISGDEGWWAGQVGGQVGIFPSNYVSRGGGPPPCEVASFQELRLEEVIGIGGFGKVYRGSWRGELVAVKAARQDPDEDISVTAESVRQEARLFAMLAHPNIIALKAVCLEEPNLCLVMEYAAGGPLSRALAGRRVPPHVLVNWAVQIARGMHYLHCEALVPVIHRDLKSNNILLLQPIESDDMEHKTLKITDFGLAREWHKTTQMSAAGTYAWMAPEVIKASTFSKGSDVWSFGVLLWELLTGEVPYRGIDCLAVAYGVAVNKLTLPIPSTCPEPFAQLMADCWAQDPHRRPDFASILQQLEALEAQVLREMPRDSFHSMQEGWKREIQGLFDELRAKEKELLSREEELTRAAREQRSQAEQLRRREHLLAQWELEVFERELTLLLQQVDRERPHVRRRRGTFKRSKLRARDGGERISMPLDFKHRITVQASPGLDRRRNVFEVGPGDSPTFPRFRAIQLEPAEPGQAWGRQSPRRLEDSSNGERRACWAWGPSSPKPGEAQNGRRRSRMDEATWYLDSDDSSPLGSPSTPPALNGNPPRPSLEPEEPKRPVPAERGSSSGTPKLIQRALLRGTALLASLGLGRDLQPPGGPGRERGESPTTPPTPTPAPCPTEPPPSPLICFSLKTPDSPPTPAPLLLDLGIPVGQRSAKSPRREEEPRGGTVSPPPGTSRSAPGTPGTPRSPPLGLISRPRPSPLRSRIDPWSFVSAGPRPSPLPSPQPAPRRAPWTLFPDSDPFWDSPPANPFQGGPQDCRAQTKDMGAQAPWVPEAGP
Sequence of CSNK1D (P48730 whole entry): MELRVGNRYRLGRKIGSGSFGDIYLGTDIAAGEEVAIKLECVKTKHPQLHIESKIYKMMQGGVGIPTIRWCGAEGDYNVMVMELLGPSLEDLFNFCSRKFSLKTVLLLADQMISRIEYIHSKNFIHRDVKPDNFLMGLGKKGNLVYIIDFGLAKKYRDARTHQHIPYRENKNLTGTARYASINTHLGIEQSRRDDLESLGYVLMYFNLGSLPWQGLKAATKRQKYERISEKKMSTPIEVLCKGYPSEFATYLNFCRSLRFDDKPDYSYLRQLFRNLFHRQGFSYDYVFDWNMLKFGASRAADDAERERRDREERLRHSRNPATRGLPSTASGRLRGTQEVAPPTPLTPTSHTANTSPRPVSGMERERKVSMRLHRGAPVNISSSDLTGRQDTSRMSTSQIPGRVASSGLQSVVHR

For `CN1CCN(c2ccc(Nc3ncc(C#N)c(Nc4ccccc4C(N)=O)n3)cc2)CC1.Cl` [TCMDC-134116], the Kd is 38.7 nM at ITK; 134 nM and 167 nM at LYN; 139 nM at CHEK2; 56 nM and 77.8 nM at MYLK3; 1150 nM at CSNK1D; 214 nM and 153 nM at KIAA0999. The Kd is 46.3 nM at MAP3K11; 230 nM and 209 nM at MAPK9; 727 nM and 858 nM at MAP2K2; 28.1 nM and 35.3 nM at PTK2B.

`Cl.NCC1(c2nc(-c3ccc(Cl)c(O)c3)c(-c3ccncc3)[nH]2)CCCCC1` [TCMDC-141154]: the Kd on LYN is 621 nM; at CSNK1D, 44 nM and 50.4 nM; at KIAA0999, 40.3 nM and 31.2 nM; on MAPK9, 355 nM; on MAP2K2 it was 7880 nM.

As for `CN(C)CC(O)COc1ccc(Nc2ncc([N+](=O)[O-])c(Nc3ccccc3O)n2)cc1.O=C(O)C(F)(F)F` (centres unmarked) [TCMDC-141399], the Kd at ITK is 470 nM; at CHEK2, 9020 nM; on MYLK3 it was 1760 nM and 1510 nM; at MAP3K11, 728 nM and 328 nM; at PTK2B, 128 nM and 175 nM.
